Several values for one entry are separate records, joined by “and”; a condition that tells them apart may be missing. Equal entries are not always repeated.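 All cell lines were grown in 96-well plates and treated with compound for 48 hours. GI50 is the concentration that inhibits growth by half. Definition used: TGI = concentration required for complete inhibition of growth.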

Assay in all cases: NCI-60 cell line screen, 48 h
The subject of assay [1] is HCT-15 colon.
Assay [2] concerns RXF 393 renal.
Assay [3] has as its system OVCAR-5 ovarian.
Assay [4] relates to SW-620 colon.
Assay [5] concerns U251 CNS.
The test system of assay [6] is NCI-H460 lung.
The test system of assay [7] is SK-MEL-5 melanoma.
For assay [8], the system named is T-47D breast.
Assay [9] has as its system PC-3 prostate.

On to `CCOC(=O)C1SC(=Nc2ccc(Cl)c(Cl)c2)N=C1C` (centres undefined), for which the TGI is over 100 µM in assay [1]; 52.3 µM in [2]; over 100 µM in [3]; over 100 µM in [4]; over 100 µM in assay [5]; over 100 µM in [6].
For `CCOC(=O)C(=Cc1ccc(C(=O)OC)cc1)C(=O)OCC`, the TGI in assay [1] was determined as 6.76 µM; in assay [3], 21.9 µM; in [7], 4.64 µM; in assay [4] it was 6.11 µM; in assay [5] it was 4.77 µM; in assay [6], 55.2 µM.
Consider `COc1ccccc1NC(=O)C1=C(C)NC(C)=C(C(=O)Nc2ccccc2OC)C1c1ccc(C)cc1`, for which the TGI in assay [1], in [2], in [3], in assay [7], in [4] and in [5] was over 100 µM throughout. In [6], this compound displayed a TGI of over 100 µM.
For the compound `CC(=O)CCCCO`, the TGI in assay [1], in [2], in [3], in assay [7], in assay [4] and in assay [5] was over 100 µM in each case. In assay [6], this compound registered a TGI of over 100 µM.
On to `CCN(CCCl)CCCNc1c2ccccc2nc2ccc(OC)cc12`, for which the TGI in [1] is 1.86 µM; in [4] it was 1.39 µM. In addition, the GI50 in assay [2] is 601 µM; in [3], 286 µM; in assay [7] it was 626 µM; in assay [5] it was 387 µM; in assay [6], 129 µM.
For the compound `NC(=O)C(c1ccccc1)N1CCOCC1` (centres undefined), the TGI in [1], in assay [2], in assay [3], in assay [7], in [4] and in assay [5] was over 100 µM throughout. The TGI in assay [6] is over 100 µM.
Consider `CCSC1=C(C)N(C=NC(C)(C)C)CC1`, for which the TGI is over 100 µM in [1]; over 100 µM in assay [2]; over 100 µM in assay [3]; over 100 µM in assay [7]; 73.8 µM in assay [4]; over 100 µM in assay [5]. Further, in assay [6], the TGI is over 100 µM.
For the compound `CC(=O)OCC1OC(OC2CC3C(C)(C)C(O)CC[C@]3(C)C3CCC45CC4(CC[C@H]5C(C)CC(O)C4OC4(C)C)[C@]23C)C(O)C(O)C1O` (some centres undefined), the GI50 in assay [1] is 14.2 µM; in assay [2], 9.7 µM; in assay [3] it was 15.8 µM; in [7] it was 5.65 µM; in assay [4] it was 4.74 µM; in assay [5], 5.17 µM. The GI50 in assay [6] was 5.08 µM. Besides, the TGI in [1] is 15.3 µM and 27.6 µM; in assay [2], 10.7 µM and 38.5 µM; in [3] it was 16.1 µM and 29.2 µM; in assay [7], 10.2 µM and 17.6 µM; in assay [4], 16.5 µM and 16.9 µM; in assay [5] it was 10.3 µM and 16.5 µM. In addition, in assay [6], the TGI was 16.8 µM and 20.4 µM.
For the compound `O=C(CC(=O)N1N=C(N2c3ccccc3Sc3ccccc32)CC1c1ccccc1)Nc1ccc(Cl)cc1` (centres undefined), the TGI in [1], in [2], in assay [3], in assay [7], in assay [4] and in [5] was over 100 µM each time. For the same compound, in [6], the TGI was over 100 µM.
`CC1=CCC23C(C1)OC(Br)(C=CC2(C)O)C3(C)C` (centres undefined): the TGI in assay [3], in assay [7], in assay [4] and in assay [6] was over 100 µM throughout.
As for `c1ccc2c(c1)[nH]c1cnc3c4cccnc4[nH]c3c12`, the TGI in assay [1] was 31.9 µM; in [2], 34.7 µM; in assay [3] it was 40.3 µM; in assay [7] it was 39.9 µM; in assay [4], 32.3 µM; in assay [6], 50.1 µM.
Take `Cc1cc(=O)oc2cc(OCc3c(F)cccc3Cl)ccc12`: the TGI in assay [8] was over 100 µM; in assay [2], 27.5 µM; in [3], over 100 µM; in assay [9], over 100 µM; in assay [7] it was over 100 µM; in assay [5] it was 30.1 µM.
As to `O=C1c2c(n(Cc3ccccc3)c(=O)n2Cc2ccccc2)C(=O)N1Cc1ccccc1`, the TGI in assay [1], in assay [2], in assay [3], in assay [7], in assay [4] and in [5] was over 100 µM each time. The same compound gave a TGI in assay [6] of over 100 µM.
As for `Cc1ccc(-c2cc(C3=CC(=O)C=CC3=O)n(-c3ccc(S(N)(=O)=O)cc3)n2)cc1`, the GI50 in [1] is 58.2 µM; in [8], 46.8 µM; in [2] it was over 100 µM; in assay [3], 35.9 µM; in assay [9], 36.5 µM; in assay [7], 83.1 µM. Moreover, the GI50 is 44.5 µM in [4], 42.4 µM in [5] and 68.2 µM in [6]. The TGI in [1], in [8], in assay [2], in [3], in assay [9] and in assay [7] was over 100 µM throughout. Further, the TGI in assay [4], in assay [5] and in [6] was over 100 µM in each case.
As to `COc1ccc(/C=C\c2cc(OC)c(OC)c(OC)c2)cc1OC(=O)CCC(=O)O`, the TGI in assay [1] was over 100 µM; in [8], 97.1 µM; in [9] it was over 100 µM; in assay [4], over 100 µM; in [6], 31.5 µM. In addition, the GI50 in assay [7] was under 0.0001 µM.
For `Fc1ccc(C2SCc3nc4ccccc4n32)cc1` (centres undefined), the TGI is over 100 µM in assay [1]; 70.7 µM in [2]; 99.4 µM in assay [3]; 38 µM in assay [7]; over 100 µM in assay [4]; over 100 µM in [5]. Also, the TGI in [6] was over 100 µM.
As to `O=C(C(=O)N1CC2C=CC1CC2)c1c[nH]c2ccccc12` (centres undefined), the TGI in assay [1], in assay [2], in [3], in assay [7], in assay [4] and in assay [5] was over 100 µM in each case. Moreover, the TGI in assay [6] is over 100 µM.

These data come from PubChem BioAssay (NCI).
